Laboratory results taken from US11680073B2, “Anticancer indenes, indanes, azaindenes, azaindanes, pharmaceutical compositions and uses” (ADT PHARMACEUTICALS, LLC, priority 2018, dated 2023).

Experiments:
[1] = tested on: cells expressing mutant Ras; settings: cited from earlier work
[2] = tested on: HCT-116, a highly Ras-driven line expressing mutant Ras; experiment: Tumor cell growth inhibition, CellTiter-Glo ATP luminescence assay, HCT-116; assay type: cell-based, human; settings: for IC50: HCT-116, 72 h, human colon tumor cells, mutant Ras, 3-day treatment, ten-fold serial dilutions, read-out: micromolar IC50 for HCT-116; for HT-29/HCT-116 Ras Inhibitory Selectivity Index: ratio IC50 HT-29 / IC50 HCT-116, numbers greater than one indicate Ras selectivity
Experimental: (§1) Human cancer cell lines are obtained from the American Type Culture Collection (ATCC). Cells are cultured using standard methods in RPMI-1640 growth medium supplemented with 5% fetal bovine serum (FBS). CellTiter-Glo ATP cell growth assay reagents are obtained from Promega and used according to the manufacturer's protocol. Cells are plated at a density of 5,000 cells per well in 96-well microplates or 1,250 cells per well in 384-well plates, then allowed to attach for at least 4 h. Test compounds are dissolved in dimethyl sulfoxide (DMSO), and this working stock is further diluted in growth medium for addition to cell cultures. Serial dilutions of the test compound are prepared in growth medium containing an equal amount of DMSO not exceeding 0.2% final concentration. Each compound concentration is tested in at least 3 separate samples per cell line. At the end of a 3-day treatment period, growth inhibition is analyzed using a bioluminescent assay of ATP concentration (Promega CellTiter-Glo) according to the manufacturer's protocol. Resulting luminescence is measured using the luminescence cartridge of the Molecular Devices Spectramax Paradigm microplate reader. Relative growth inhibition for each sample is determined by comparison with the values obtained for vehicle treated control samples. Growth inhibition values are plotted with the GraphPad Prism5 software using the 4-parameter logistic fit to obtain IC50 values, which corresponds to the growth inhibitory potency of the compound.
(§2) This selected example illustrates the use of well-established human colon tumor cell lines with widely divergent Ras activation status to determine tumor cell growth inhibitory activity (IC50 values) and Ras selectivity values for some selected exemplary compounds of the present invention. Cell lines thus employed in this example are HCT-116, a highly Ras-driven line expressing mutant Ras, and HT-29, a non-Ras-driven line expressing wild-type, non-mutated Ras. Cells are plated at 5000 cells/well in 96-well plates, ten-fold serial dilutions of compounds are tested, each tested concentration in at least 3 separate samples per cell line, and viable cell numbers are measured using the Cell Titer Glo ATP luminescence assay (Promega). […] FIGS. 5-7 provide examples of full data sets from which numerical values, including Ras selectivity indices, can be calculated; data sets are shown for selected exemplary compounds 2090, 2096 and 2183. […]

[3] = tested on: HT-29, a non-Ras-driven line expressing wild-type, non-mutated Ras; experiment: Tumor cell growth inhibition, CellTiter-Glo ATP luminescence assay, HT-29; assay type: cell-based; settings: HT-29, 72 h, human colon tumor cells, 3-day treatment, ten-fold serial dilutions, read-out: micromolar IC50 for HT-29
Experimental: as §1, §2

Structure (SMILES) | IC50 [2] | IC50 [3] | IC50 ([1]; cells expressing mutant Ras, read-out: IC50, growth inhibition of cells expressing mutant Ras) | selectivity versus cells lacking oncogenic Ras ([1]; versus cells lacking oncogenic Ras) | HT-29/HCT-116 Ras Inhibitory Selectivity Index [2]
Cc1onc(C(=O)N2CCN(C(c3ccc(Cl)cc3)c3ccc(Cl)cc3)CC2)c1[N+](=O)[O-] [ML210] | – | – | 0.071 µM | 4 fold | –
COc1cc(/C=C2/C(C)=C(CC(=O)NCc3cccnc3)c3cc(F)ccc32)cc(OC)c1B(O)O [compound 1736, (Z)-(4-((5-fluoro-2-methyl-3-(2-oxo-2-((pyridin-3-ylmethyl)amino)ethyl)-1H-inden-1-ylidene)methyl)-2,6-dimethoxyphenyl)boronic acid] | 5.05 µM | 5.59 µM | – | – | 1.11
COc1cc(/C=C2/C(C)=C(CC(=O)NCc3cccnc3)c3cc(F)ccc32)cc(OC)c1B1OC(C)(C)C(C)(C)O1 [compound 2200, (Z)-2-(1-(3,5-dimethoxy-4-(4,4,5,5-tetramethyl-1,3,2-dioxaborolan-2-yl)benzylidene)-5-fluoro-2-methyl-1H-inden-3-yl)-N-(pyridin-3-ylmethyl)acetamide] | 6.18 µM | 6.65 µM | – | – | 1.08

Second part, led by results:

IC50 [2] | IC50 [3] | Structure (SMILES) | IC50 ([1]; cells expressing mutant Ras, read-out: IC50, growth inhibition of cells expressing mutant Ras) | selectivity versus cells lacking oncogenic Ras ([1]; versus cells lacking oncogenic Ras) | HT-29/HCT-116 Ras Inhibitory Selectivity Index [2]
0.212 µM | 8.03 µM | COc1cc(CC2c3ccc(F)cc3C(CC(=O)NCc3ccccc3)C2C)cc(OC)c1O (centres unmarked) [compound 1796, N-benzyl-2-(6-fluoro-3-(4-hydroxy-3,5-dimethoxybenzyl)-2-methyl-2,3-dihydro-1H-inden-1-yl)acetamide] | – | – | 38
0.3 µM | 13 µM | COc1cc(/C=C2/C(C)=C(CNC(=O)c3ccco3)c3cc(F)ccc32)cc(OC)c1O [compound 2090, (Z)—N-((5-fluoro-1-(4-hydroxy-3,5-dimethoxybenzylidene)-2-methyl-1H-inden-3-yl)methyl)furan-2-carboxamide] | – | – | 43
0.033 µM | 9 µM | COc1cc(/C=C2/C(C)=C(CNC(=O)Cc3cccnc3)c3cc(F)ccc32)cc(OC)c1O [compound 2096, (Z)—N-((5-fluoro-1-(4-hydroxy-3,5-dimethoxybenzylidene)-2-methyl-1H-inden-3-yl)methyl)-2-(pyridin-3-yl)acetamide] | – | – | 273
0.42 µM | 9.28 µM | COc1cc(/C=C2/C(C)=C(CNC(=O)c3cn[nH]c3)c3cc(F)ccc32)cc(OC)c1O [compound 2183, (Z)—N-((5-fluoro-1-(4-hydroxy-3,5-dimethoxybenzylidene)-2-methyl-1H-inden-3-yl)methyl)-1H-pyrazole-4-carboxamide] | – | – | 22
